Results published in publication PMC12018770, “DEAD‐Box Helicase 6 Blockade in Brain‐Derived Aβ Oligomers From Alzheimer's Disease Patients Attenuates Neurotoxicity” (MedComm, 2025).
“Also recorded” adds a separate entry of the source.

Tests used:
[1] = test system: human‐derived Aβ oligomers; assay: AP-MS with SAINTexpress scoring of binding to human‐derived Aβ oligomers; conditions: score 0 to 1; criteria SAINT score > 0.5 and fold change ≥ 2; AD1–AD6, n = 6
Description: Not all identified proteins bind to Aβ oligomers. Therefore, we used the SAINTexpress statistical method to screen for proteins most likely to interact with human‐derived Aβ oligomers. SAINTexpress assigns probability scores to factors interacting with target proteins, providing a value between 0 and 1, where higher scores indicate a greater likelihood of interaction with Aβ oligomers. Based on the analyzed results, we plotted the fold change on the x‐axis and SAINT scores on the y‐axis, with each point representing a protein. Proteins meeting the criteria of a SAINT score > 0.5 and fold change ≥ 2 were considered the most likely to bind Aβ oligomers (highlighted in red). Through rigorous analysis, we identified four proteins as binding partners (Figure 1C): DDX6 (SAINT score = 0.5783), DSP (SAINT score = 0.6608), JUP (SAINT score = 0.5846), and HRNR (SAINT score = 0.5246).
An aliquot of each peptide mixture was loaded onto a trap column (in‐house‐fabricated column packed with a reversed‐phase ReproSil‐Pur C18‐AQ resin, 150 µm × 15 cm, C18, 3 µm, 100 Å, Dr. Maisch GmbH, Germany) connected to an analytical column (EASY‐Spray column, […] × 75 µm ID, PepMap RSLC C18, 2 µm, 100 Å, Thermo Scientific, USA) using the autosampler of an EASY‐nLC 1200 HPLC system (Thermo Fisher Scientific). The peptides were eluted using a gradient (solvent A: 0.1% formic acid in water; solvent B: 80% acetonitrile/0.1% formic acid in water; Sigma, Germany) directly into a Q Exactive Hybrid Quadrupole‐Orbitrap mass spectrometer (Thermo Fisher Scientific). The gradient program was as follows: 4%–8% solvent B over 2 min, 8%–28% solvent B over 43 min, 28%–40% solvent B over 10 min, 40%–95% solvent B over 1 min, and 95% solvent B for 10 min. The following mass spectrometry parameters were used: spray voltage, 2.2 kV; capillary temperature, 270°C; MS resolution, 70,000 at 400 m/z; MS precursor m/z range, 300.0–1800.0 m/z; activation type, high‐energy collision dissociation; normalized collision energy, 28.0; activation time, […]; and data‐dependent MS/MS, top 20 most intense peptide ions selected based on the preview scan in the Orbitrap.
The raw MS files (Figure S5) were analyzed and searched against species‐specific protein databases using MaxQuant (v1.6.2.10). The following parameters were applied: maximum missed cleavages, 2; precursor ion mass tolerance, 20 ppm; and MS/MS tolerance, 20 ppm. Peptides and proteins were filtered to achieve a false discovery rate of < 1% using a target‐decoy database strategy, and only proteins with at least two unique peptides were reported. […] SAINT is a probabilistic method for scoring protein–protein interactions in AP‐MS experiments, enabling the identification of proteins most likely to interact with target proteins. […]

[2] = test system: Aβ oligomers in AD brain; assay: IHC colocalization with Aβ oligomers in AD brain sections; set-up: species or system human; conditions: AD7–AD10, n = 4; fluorescence scan over 120 µm
Description: To further validate the binding interactions between Aβ oligomers and the four proteins, we performed immunohistochemistry (IHC) on brain sections from four AD patients (AD7–AD10). We analyzed the colocalization of Aβ oligomers (red) with DDX6, JUP, HRNR, and DSP (all green), as well as 4',6‐diamidino‐2‐phenylindole (DAPI)‐stained nuclei (blue). […] We also performed fluorescence intensity scanning from left to right across stained brain tissue slices (120 µm). […] The combined results from co‐IP and IHC confirm that these four proteins can bind to Aβ oligomers.
Sections were dewaxed, subjected to antigen retrieval, and blocked. They were then incubated with primary antibody (1:500) overnight at 4°C, followed by secondary antibody (1:200). Nuclei were stained with DAPI (Beyotime; C1002, Shanghai, China) for 10 min in the dark.

[3] = test system: human‐derived Aβ oligomers; assay: Co-immunoprecipitation / Western blotting of protein-Aβ oligomer interaction in AD brain extracts; assay type: binding; conditions: IgG isotype control
Description: After rigorous data analysis with SAINTexpress, four proteins (DDX6, DSP, JUP, and HRNR) were identified as potential Aβ oligomer‐binding partners. To validate these findings, we selected DSP and DDX6 as positive controls for co‐IP analysis; tau proteins were used as negative controls. Input samples, IP, co‐IP extracts, and IgG controls were adjusted to ensure equal amounts of protein for comparison. […] The IP enrichment effect was substantial for Aβ oligomers, DDX6, DSP, and tau proteins. In the co‐IP extracts for DDX6 and DSP, Aβ oligomers were detected at approximately 55 and 30 kDa, respectively (indicated by “ [drawing 1] ”). […] Isotype control IgG was used to exclude nonspecific binding (Figure 2A).
A Co‐IP kit (Thermo Fisher Scientific; #26149, USA) was used for the assay. Antibodies (2 µg) were crosslinked to a reinforced AminoLink coupling resin (20 µL of beads) and immobilized on a Pierce spin column at room temperature. Protein extracts (1 mg) were added to the spin column and incubated overnight at 4°C with rotation. The spin column was then transferred to a new collection tube, and 60 µL of elution buffer (pH 2.8, containing tertiary amine) was added. The column was centrifuged, and the eluate was analyzed to detect the presence of the target protein.
Protein concentrations in the co‐IP extracts were measured using a bicinchoninic acid assay (#23225, Thermo Fisher Scientific, USA). For each sample, 20 µL of protein was loaded, with the following amounts of human‐derived Aβ oligomers (AD1–AD6) used: 1.8 µg, 2.0 µg, 1.9 µg, 1.6 µg, 2.0 µg, and 1.8 µg, respectively. Equivalent amounts of co‐IP extracts were loaded into the remaining lanes. A 5× loading buffer was added to the protein samples to achieve a final concentration of 1×, and the samples were incubated at 95°C for 5 min [44]. […]
B. The PVDF membrane was probed with the Aβ oligomer antibody (A11), indicating enrichment of Aβ oligomers (post-IP) with bands observed at 55 kDa and 30 kDa. Aβ oligomers were detected in the co-IP products of DDX6 (indicated by “✸”). […]

[4] = test system: Aβ fibrillar plaques; assay: ThT‐binding assay, fluorescence microscopy of fibrillar plaques; assay type: biochemical; conditions: DDX6 10 µM, Aβ42 20 µM, Aβ42 oligomers 5 µM; n = 3
[5] = test system: GST‐DDX6; assay: GST pulldown with GST‐DDX6; assay type: binding; conditions: 150 µg GST‐DDX6, 300 µg recombinant Aβ oligomers or negative control protein, overnight; n = 3
Description: We conducted a series of in vitro experiments to investigate the mechanism by which DDX6 blockade affects Aβ oligomer neurotoxicity.
In accordance with the protocol provided in the GST pulldown kit (#21516; Thermo Fisher Scientific), 150 µg of GST‐DDX6 protein were rotated with 50 µL of glutathione agarose resin at 4°C for 3 h. The resin was then incubated overnight with 300 µg of recombinant Aβ oligomers or a negative control protein, washed with pH 8.0 glutathione elution buffer, and validated by dot blotting.

| Substance | SAINT score [1] | colocalization with Aβ oligomers [2] | binding to Aβ oligomers by co‐IP [3] | fluorescence intensity by microscopy (in words) [4] | pulldown by GST‐DDX6 [5] |
| --- | --- | --- | --- | --- | --- |
| DEAD‐box helicase 6 [DDX6] | 0.5783 | strong colocalization | DDX6 and DSP were also detected in Aβ oligomer co‐IP extracts; also recorded: DDX6 was detected in the co-IP products of Aβ oligomers | showed no effects on fluorescence intensity | – |
| Aβ42 oligomers: oligomers prepared from Aβ42 peptide (Abcam #ab120301), PBS, 72 h at 4°C | – | – | – | – | successfully pulled down |
